Test results: the NIST ThermoML archive (doi:10.1016/j.jct.2008.09.002)

Assays:
[1] = xn = mol fraction of the nth substance listed; details: 101.3 kPa, Liquid, Vibrating tube method
[2] = excess molar enthalpy (molar enthalpy of mixing); xn = mol fraction of the nth substance listed; details: 303.15 K, 101.3 kPa, Liquid, Calvet calorimetry
[3] = molar heat capacity at constant pressure; xn = mol fraction of the nth substance listed; details: 101.3 kPa, Liquid, Small sample (50 mg) DSC

CCCCCCn1cc[n+](C)c1.F[B-](F)(F)F [1-hexyl-3-methylimidazolium tetrafluoroborate] + C[N+](=O)[O-]
Details | mass density, [1] [kg/m3] | molar heat capacity at constant pressure, [3] [J/K/mol]
293.15 K, x1 = 0.098 | 1148.7 | 136.3
293.15 K, x1 = 0.1933 | 1150.7 | 166.4
293.15 K, x1 = 0.3062 | 1151.2 | 202.6
293.15 K, x1 = 0.3988 | 1151.1 | 232.4
293.15 K, x1 = 0.4936 | 1150.9 | 262.8
293.15 K, x1 = 0.5941 | 1150.5 | 295.4
293.15 K, x1 = 0.5973 | 1150.5 | –
293.15 K, x1 = 0.6839 | 1150.1 | –
293.15 K, x1 = 0.6917 | 1150 | 326.6
293.15 K, x1 = 0.7702 | 1149.8 | 351.4
293.15 K, x1 = 0.7767 | 1149.7 | –
293.15 K, x1 = 0.786 | 1149.6 | –
293.15 K, x1 = 0.8514 | 1149.3 | –
293.15 K, x1 = 0.8665 | 1149.2 | 382.6
293.15 K, x1 = 0.8727 | 1149.2 | –
298.15 K, x1 = 0.098 | 1143.2 | 136.7
298.15 K, x1 = 0.1933 | 1145.8 | 167
298.15 K, x1 = 0.3062 | 1146.7 | 203.5
298.15 K, x1 = 0.3988 | 1146.9 | 233.4
298.15 K, x1 = 0.4936 | 1146.8 | 264
298.15 K, x1 = 0.5941 | 1146.6 | 296.8
298.15 K, x1 = 0.5973 | 1146.6 | –
298.15 K, x1 = 0.6839 | 1146.4 | –
298.15 K, x1 = 0.6917 | 1146.2 | 328.3
298.15 K, x1 = 0.7702 | 1146.1 | 353.4
298.15 K, x1 = 0.7767 | 1146 | –
298.15 K, x1 = 0.786 | 1146 | –
298.15 K, x1 = 0.8514 | 1145.8 | –
298.15 K, x1 = 0.8665 | 1145.7 | 384.8
298.15 K, x1 = 0.8727 | 1145.7 | –
303.15 K, x1 = 0.098 | 1137.7 | 137.2
303.15 K, x1 = 0.1933 | 1140.9 | 167.7
303.15 K, x1 = 0.3062 | 1142.3 | 204.4
303.15 K, x1 = 0.3988 | 1142.7 | 234.5
303.15 K, x1 = 0.4936 | 1142.8 | 265.4
303.15 K, x1 = 0.5941 | 1142.8 | 298.3
303.15 K, x1 = 0.5973 | 1142.8 | –
303.15 K, x1 = 0.6839 | 1142.6 | –
303.15 K, x1 = 0.6917 | 1142.5 | 330
303.15 K, x1 = 0.7702 | 1142.5 | 355.4
303.15 K, x1 = 0.7767 | 1142.4 | –
303.15 K, x1 = 0.786 | 1142.4 | –
303.15 K, x1 = 0.8514 | 1142.3 | –
303.15 K, x1 = 0.8665 | 1142.1 | 387
303.15 K, x1 = 0.8727 | 1142.2 | –
308.15 K, x1 = 0.098 | 1132.1 | 137.7
308.15 K, x1 = 0.1933 | 1136 | 168.4
308.15 K, x1 = 0.3062 | 1137.8 | 205.3
308.15 K, x1 = 0.3988 | 1138.5 | 235.6
308.15 K, x1 = 0.4936 | 1138.8 | 266.7
308.15 K, x1 = 0.5941 | 1138.9 | 299.8
308.15 K, x1 = 0.5973 | 1138.9 | –
308.15 K, x1 = 0.6839 | 1138.9 | –
308.15 K, x1 = 0.6917 | 1138.8 | 331.7
308.15 K, x1 = 0.7702 | 1138.9 | 357.3
308.15 K, x1 = 0.7767 | 1138.8 | –
308.15 K, x1 = 0.786 | 1138.8 | –
308.15 K, x1 = 0.8514 | 1138.7 | –
308.15 K, x1 = 0.8665 | 1138.6 | 389.1
308.15 K, x1 = 0.8727 | 1138.6 | –
313.15 K, x1 = 0.098 | 1126.6 | 138.3
313.15 K, x1 = 0.1933 | 1131.1 | 169.2
313.15 K, x1 = 0.3062 | 1133.4 | 206.3
313.15 K, x1 = 0.3988 | 1134.3 | 236.9
313.15 K, x1 = 0.4936 | 1134.8 | 268.2
313.15 K, x1 = 0.5941 | 1135.1 | 301.3
313.15 K, x1 = 0.5973 | 1135.1 | –
313.15 K, x1 = 0.6839 | 1135.2 | –
313.15 K, x1 = 0.6917 | 1135.1 | 333.4
313.15 K, x1 = 0.7702 | 1135.3 | 359.2
313.15 K, x1 = 0.7767 | 1135.2 | –
313.15 K, x1 = 0.786 | 1135.2 | –
313.15 K, x1 = 0.8514 | 1135.2 | –
313.15 K, x1 = 0.8665 | 1135.1 | 391.3
313.15 K, x1 = 0.8727 | 1135.1 | –
318.15 K, x1 = 0.098 | 1121 | 138.8
318.15 K, x1 = 0.1933 | 1126.2 | 169.9
318.15 K, x1 = 0.3062 | 1129 | 207.3
318.15 K, x1 = 0.3988 | 1130.2 | 238.1
318.15 K, x1 = 0.4936 | 1130.9 | 269.6
318.15 K, x1 = 0.5941 | 1131.3 | 302.8
318.15 K, x1 = 0.5973 | 1131.3 | –
318.15 K, x1 = 0.6839 | 1131.5 | –
318.15 K, x1 = 0.6917 | 1131.4 | 335
318.15 K, x1 = 0.7702 | 1131.6 | 361.1
318.15 K, x1 = 0.7767 | 1131.6 | –
318.15 K, x1 = 0.786 | 1131.6 | –
318.15 K, x1 = 0.8514 | 1131.7 | –
318.15 K, x1 = 0.8665 | 1131.6 | 393.4
318.15 K, x1 = 0.8727 | 1131.6 | –

[2]
Details | excess molar enthalpy [kcal/mol]
x1 = 0.1 | -0.0174
x1 = 0.2074 | -0.0296
x1 = 0.3028 | -0.0349
x1 = 0.4096 | -0.0382
x1 = 0.5095 | -0.038
x1 = 0.6072 | -0.0342
x1 = 0.7148 | -0.027
x1 = 0.7891 | -0.0225
x1 = 0.8821 | -0.012
